Patent US20250223268A1, “4-Methylsulfonylbenzamide Compound, Preparation Method, Herbicidal Composition And Use” (Jiangsu Flag Chemical Industry Co., Ltd., priority 2022, published 2025)

Legend:
Type in all cases: in vivo
[1] = tested on: Leptochloa chinensis; experiment: Greenhouse herbicidal activity and crop safety comparison (Test Example 2); conditions: Rate 150 g/ha
Text: (§1) Pre-emergence: Seeds of gramineous weeds (Echinochloa crusgalli, Echinochloa crusgalli var. zelayensis, Echinochloa phyllopogon, Eleusine indica, Digitaria sanguinalis, Leptochloa chinensis, Setaria viridis, Alopecurus japonicus Steud, Beckmannia syzigachne, Polypogon fugax, Alopecurus aequalis, Lolium multiflorum, Poa annua, Aegilops tataschii, Avena fatua, Alopecurus myosuroides, Bromus japonicus), broadleaf weeds (Eclipta prostrata, Amaranthus retroflexus, Rorippa indica, Myosoton aquaticum, Veronica didyma, Galium aparine, Solanum nigrum, Xanthium sibiricum, Conyza canadensis, Sesbania cannabina, Sagittaria trifolia), and Cyperus iria (Cyperus iria, Scirpus juncoides, Cyperus difformis, etc.) were sown in plastic pots (7 cm diameter) with nutrient soil and bottom holes. Crop seeds (including Oryza sativa subsp. indica, Oryza sativa subsp. japonica, Oryza sativa L. var. Glutinosa matsum, Triticum aestivum, Zea mays, Sorghum bicolor, Setaria italica, Glycine max, Gossypium hirsutum, Brassica napus, Arachis hypogaea) were sown in plastic pots (10 cm diameter) with nutrient soil and bottom holes. After sowing, the seeds were lightly covered with soil, and the soil was moistened via bottom water absorption. The pots were placed in a constant-temperature light-controlled growth chamber for 24 hours before soil spraying. Spraying was performed using a 3WP-2000 walking-type spray tower (produced by the Nanjing Agricultural Mechanization Institute, Ministry of Agriculture) with a spindle speed of 96 mm/r, spray height of 300 mm, effective spray width of 350 mm, spray area of 0.35 m^2, and nozzle flow rate of 390 mL/min.
(§2) After treatment, the test materials were air-dried naturally in the laboratory and then transferred to the growth chamber. Results were assessed 14-30 days later.
(§3) Post-emergence: Seeds of gramineous weeds (Echinochloa crusgalli, Echinochloa crusgalli var. zelayensis, Echinochloa phyllopogon, Eleusine indica, Digitaria sanguinalis, Leptochloa chinensis, Setaria viridis, Alopecurus japonicus Steud, Beckmannia syzigachne, Polypogon fugax, Alopecurus aequalis, Lolium multiflorum, Poa annua, Aegilops tataschii, Avena fatua, Alopecurus myosuroides, Bromus japonicus), broadleaf weeds (Eclipta prostrata, Amaranthus retroflexus, Rorippa indica, Myosoton aquaticum, Veronica didyma, Galium aparine, Solanum nigrum, Xanthium sibiricum, Conyza canadensis, Sesbania cannabina, Sagittaria trifolia), and Cyperus iria (Cyperus iria, Scirpus juncoides, Cyperus difformis, etc.) were sown in plastic pots (7 cm diameter) with nutrient soil and bottom holes. Crop seeds (including Oryza sativa subsp. indica, Oryza sativa subsp. japonica, Oryza sativa L. var. Glutinosa matsum, Triticum aestivum, Zea mays, Sorghum bicolor, Setaria italica, Glycine max, Gossypium hirsutum, Brassica napus, Arachis hypogaea) were sown in plastic pots (10 cm diameter) with nutrient soil and bottom holes. After sowing, the pots were placed in the growth chamber until the plants reached the 3-6 leaf stage for foliar spraying. Post-treatment, the materials were air-dried naturally and returned to the growth chamber. Results were assessed 14-21 days later.
(§4) • A: Fresh weight inhibition rate≥80% to 100%; • B: Fresh weight inhibition rate[…] to <80%; • C: Fresh weight inhibition rate≥40% to <60%; • D: Fresh weight inhibition rate≥20% to <40%; • E: Fresh weight inhibition rate<20%; • NT: Not tested.
(§5) Using the above method, the herbicidal activity and crop safety of the present compounds were compared with structurally similar known compounds (CK1, CK2, CK3, CK4: compounds 4-756, 4-759, 1-557, 1-563 from WO2012028579A1; CK5: compound 290-1 from WO2013087577A1; CK6: compound 1-129 from WO2011035874A1).

[2] = tested on: Oryza sativa subsp. indica; experiment: as above; conditions: Rate 150 g/ha
Text: as §1, §2, §3, §4, §5

[3] = tested on: Oryza sativa subsp. japonica; experiment: as above; conditions: Rate 150 g/ha
Text: as §1, §2, §3, §4, §5

[4] = tested on: Cyperus iria; experiment: Greenhouse herbicidal activity assay, post-emergence; conditions: Post-emergence test, rate 150 g a.i./hm^2; grade by fresh weight inhibition rate
In short: (§6)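 Weeds were sown in nutrient soil in 7 cm pots and grown in a growth chamber to the 3-6 leaf stage, then foliar-sprayed, air-dried and returned to the chamber. Fresh weight inhibition was scored 14-21 days later in bands from A (≥80% to 100%) to E (<20%).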

[5] = tested on: Digitaria sanguinalis; experiment: as above; conditions: Post-emergence test, rate 150 g a.i./hm^2; grade by fresh weight inhibition rate
In short: as §6

[6] = tested on: Echinochloa crusgalli; experiment: as above; conditions: Post-emergence test, rate 150 g a.i./hm^2; grade by fresh weight inhibition rate
In short: as §6

[7] = tested on: Eclipta prostrata; experiment: as above; conditions: Post-emergence test, rate 150 g a.i./hm^2; grade by fresh weight inhibition rate
In short: as §6

[8] = tested on: Leptochloa chinensis; experiment: as above; conditions: Post-emergence test, rate 150 g a.i./hm^2; grade by fresh weight inhibition rate
In short: as §6

Row | SMILES | Leptochloa chinensis, control efficacy grading (fresh weight inhibition rate) [1] | Oryza sativa subsp. indica, grading of fresh weight inhibition rate (crop safety) [2] | Oryza sativa subsp. japonica, grading of fresh weight inhibition rate (crop safety) [3] | Control efficacy grade, Cyperus iria [4] | Control efficacy grade, Digitaria sanguinalis [5] | Control efficacy grade, Echinochloa crusgalli [6] | Control efficacy grade, Eclipta prostrata [7] | Control efficacy grade, Leptochloa chinensis [8]
1 | C#CCS(=O)(=O)c1c(S(C)(=O)=O)ccc(C(=O)Nc2nnc(C)o2)c1Cl [Compound 3-151] | A (Fresh weight inhibition rate≥80% to 100%) | E (Fresh weight inhibition rate<20%) | E (Fresh weight inhibition rate<20%) | A (Fresh weight inhibition rate≥80% to 100%) | B (Fresh weight inhibition rate≥260% to <80%) | B (Fresh weight inhibition rate≥260% to <80%) | A (Fresh weight inhibition rate≥80% to 100%) | A (Fresh weight inhibition rate≥80% to 100%)
2 | CC(C)c1nnc(NC(=O)c2ccc(S(C)(=O)=O)c(S(=O)(=O)CC3CC3)c2Cl)o1 [Compound 3-534] | A (Fresh weight inhibition rate≥80% to 100%) | E (Fresh weight inhibition rate<20%) | E (Fresh weight inhibition rate<20%) | A (Fresh weight inhibition rate≥80% to 100%) | B (Fresh weight inhibition rate≥260% to <80%) | B (Fresh weight inhibition rate≥260% to <80%) | A (Fresh weight inhibition rate≥80% to 100%) | B (Fresh weight inhibition rate≥260% to <80%)
3 | CC(C)c1nnc(NC(=O)c2ccc(S(C)(=O)=O)c(S(=O)(=O)C3CC3)c2Cl)o1 [Compound 3-539] | A (Fresh weight inhibition rate≥80% to 100%) | E (Fresh weight inhibition rate<20%) | E (Fresh weight inhibition rate<20%) | B (Fresh weight inhibition rate≥260% to <80%) | B (Fresh weight inhibition rate≥260% to <80%) | B (Fresh weight inhibition rate≥260% to <80%) |  | A (Fresh weight inhibition rate≥80% to 100%)
4 | CC(C)c1nnc(NC(=O)c2ccc(S(C)(=O)=O)c(S(=O)(=O)C3CCC3)c2Cl)o1 [Compound 3-544] | A (Fresh weight inhibition rate≥80% to 100%) | E (Fresh weight inhibition rate<20%) | E (Fresh weight inhibition rate<20%) | A (Fresh weight inhibition rate≥80% to 100%) |  | B (Fresh weight inhibition rate≥260% to <80%) | A (Fresh weight inhibition rate≥80% to 100%) | A (Fresh weight inhibition rate≥80% to 100%)
5 | CS(=O)(=O)c1ccc(C(=O)Nc2nnc(C3CC3)o2)c(Cl)c1S(=O)(=O)C1CCCC1 [Compound 3-665] | A (Fresh weight inhibition rate≥80% to 100%) | E (Fresh weight inhibition rate<20%) | E (Fresh weight inhibition rate<20%) | B (Fresh weight inhibition rate≥260% to <80%) |  |  | A (Fresh weight inhibition rate≥80% to 100%) | A (Fresh weight inhibition rate≥80% to 100%)
